Results reported in patent publication US20170306090A1, “METHOD FOR MAKING POLYCARBONATE USING A LIQUID KETONE MIXTURE” (SABIC Global Technologies B.V., priority 2014, published 2017).

Assay: Solubility of diphenyl carbonate in various ketones (gravimetric method)
[1] = Example 1, Temperature 70 °C, molar ratio of ketone to DPC 1:1
[2] = Example 2, Temperature 50 °C, molar ratio of ketone to DPC 1:1
[3] = Example 3, Temperature 50 °C, molar ratio of ketone to DPC 1.5:1
[4] = Example 4, Temperature 25 °C, molar ratio of ketone to DPC 1:1
[5] = Example 5, Temperature 25 °C, molar ratio of ketone to DPC 1.5:1
[6] = Example 6, Temperature 25 °C, molar ratio of ketone to DPC 2:1

Procedure: The solubility of diphenyl carbonate in various ketones was determined. Solubility was determined based on a gravimetric method.

Row | SMILES | Solubility of diphenyl carbonate in the ketone [1] | Solubility of diphenyl carbonate in the ketone [2] | Solubility of diphenyl carbonate in the ketone [3] | Solubility of diphenyl carbonate in the ketone [4] | Solubility of diphenyl carbonate in the ketone [5] | Solubility of diphenyl carbonate in the ketone [6]
1 | CCC(=O)CC [Diethyl ketone, diethyl ketone] | Yes | No | Yes | No | No | Yes
2 | CC(=O)CC(C)C [MIBK, methyl isobutyl ketone] | Yes | No | Yes | No | No | No
